Assay results published in ChEMBL document CHEMBL5608163, “Structure modification of anoplin for fighting resistant bacteria” (Eur J Med Chem, 2024).
In brackets after ≈: the same amount, converted by molar mass. Peptide text beside a SMILES is read from it.

Legend:
[1] = Hemolytic activity in human RBC assessed as hemolysis; type: toxicity, cell-based, Erythrocyte; conditions: red blood cells
[2] = system: Enterococcus faecium; assay: Antibacterial activity against Enterococcus faecium; type: functional
[3] = system: Pseudomonas aeruginosa; assay: Antibacterial activity against Pseudomonas aeruginosa ATCC 15442 assessed as reduction in bacterial cell growth incubated for 18 hrs by two fold serial microdilution method; type: functional
[4] = system: Staphylococcus aureus; assay: Antibacterial activity against Staphylococcus aureus; type: functional
[5] = system: Escherichia coli; assay: Antibacterial activity against Escherichia coli; type: functional
[6] = system: Pseudomonas aeruginosa; assay: Antibacterial activity against Pseudomonas aeruginosa; type: functional
[7] = Hemolytic activity in human red blood cells; type: toxicity, cell-based, Erythrocyte; conditions: red blood cells
[8] = Hemolytic activity in human RBC assessed as hemolysis measured after 24 hrs; type: toxicity, cell-based, Erythrocyte; conditions: red blood cells
[9] = system: Staphylococcus aureus; assay: Antibacterial activity against Staphylococcus aureus ATCC 25923 assessed as reduction in bacterial growth measured after 18 to 24 hrs by CLSI protocol-based Mueller-Hinton broth dilution method; type: functional; conditions: time 18-24 hrs
[10] = system: Bacillus subtilis; assay: Antibacterial activity against Bacillus subtilis ATCC 23857 assessed as reduction in bacterial growth measured after 18 to 24 hrs by CLSI protocol-based Mueller-Hinton broth dilution method; type: functional; conditions: time 18-24 hrs
[11] = system: Escherichia coli; assay: Antibacterial activity against multi-drug resistant Escherichia coli clinical isolate 850 assessed as reduction in bacterial growth measured after 18 to 24 hrs by CLSI protocol-based Mueller-Hinton broth dilution method; type: functional; conditions: time 18-24 hrs
[12] = system: Pseudomonas aeruginosa; assay: Antibacterial activity against multi-drug resistant Pseudomonas aeruginosa clinical isolate 119 assessed as reduction in bacterial growth measured after 18 to 24 hrs by CLSI protocol-based Mueller-Hinton broth dilution method; type: functional; conditions: time 18-24 hrs
[13] = system: Klebsiella pneumoniae; assay: Antibacterial activity against Klebsiella pneumoniae ATCC 700603 assessed as reduction in bacterial growth measured after 18 to 24 hrs by CLSI protocol-based Mueller-Hinton broth dilution method; type: functional; conditions: time 18-24 hrs
[14] = system: Acinetobacter baumannii; assay: Antibacterial activity against multi-drug resistant Acinetobacter baumannii clinical isolate 9840 assessed as reduction in bacterial growth measured after 18 to 24 hrs by CLSI protocol-based Mueller-Hinton broth dilution method; type: functional; conditions: time 18-24 hrs
[15] = system: Staphylococcus aureus; assay: Antibacterial activity against Staphylococcus aureus ATCC 25923 assessed as bacterial growth inhibition measured for 18 hrs by CLSI-protocol based Mueller-Hinton Broth micro-dilution assay; type: functional
[16] = system: Staphylococcus aureus; assay: Antibacterial activity against Methicillin-resistant Staphylococcus aureus 936 assessed as bacterial growth inhibition measured for 18 hrs by CLSI-protocol based Mueller-Hinton Broth micro-dilution assay; type: functional
[17] = system: Pseudomonas aeruginosa; assay: Antibacterial activity against Pseudomonas aeruginosa ATCC 27853 assessed as reduction in microbial growth incubated for 16 to 20 hrs by CLSI protocol based Muller Hinton broth assay; type: functional; conditions: time 16-20 hrs
[18] = system: Staphylococcus aureus; assay: Antibacterial activity against methicillin-resistant Staphylococcus aureus ATCC 33591 assessed as reduction in bacterial growth incubated for 18 hrs by agar dilution method; type: functional
[19] = system: Enterococcus faecium; assay: Antibacterial activity against vancomycin resistant Enterococcus faecium ATCC 700221 assessed as inhibition of bacterial growth incubated for 48 hrs by CLSI-based broth microdilution assay; type: functional
[20] = system: Bacillus subtilis; assay: Antibacterial activity against Bacillus subtilis assessed as reduction in bacterial growth incubated for 24 hrs by broth microdilution assay; type: functional
[21] = system: Mycolicibacterium smegmatis; assay: Antimycobacterial activity against Mycobacterium smegmatis mc2 155 assessed as reduction in bacterial cell growth by resazurin reduction method; type: functional
[22] = system: Escherichia coli; assay: Antibacterial activity against Escherichia coli ATCC 25922 assessed as reduction in microbial growth incubated for 16 to 20 hrs by CLSI protocol based Muller Hinton broth assay; type: functional; conditions: time 16-20 hrs

SMILES | MIC [2] | HC50 at 24 h [8] | MIC [9] | MIC [10] | MIC [11] | MIC [12] | MIC [13] | MIC [14] | MIC [15] | MIC [16] | other results
CC[C@H](C)[C@H](NC(=O)[C@H](CCCCN)NC(=O)[C@H](CCCCN)NC(=O)[C@H](CC(C)C)NC(=O)[C@H](CC(C)C)NC(=O)CN)C(=O)N[C@@H](CCCCN)C(=O)N[C@H](C(=O)N[C@@H](CC(C)C)C(=O)N[C@@H](CC(C)C)C(N)=O)[C@@H](C)O | 171 µM (≈ 192 µg/mL) |  |  |  |  |  |  |  |  |  | HC50 [1]: 269 µM; MIC [3]: 56.8 µM (≈ 63.9 µg/mL)
CC[C@H](C)[C@H](NC(=O)[C@H](CCCCN)NC(=O)[C@H](CCCCN)NC(=O)[C@H](CC(C)C)NC(=O)[C@H](CC(C)C)NC(=O)CN)C(=O)N[C@@H](CCCCN)C(=O)N[C@@H](CCCCN)C(=O)N[C@@H](CC(C)C)C(=O)N[C@@H](CC(C)C)C(N)=O | 56.9 µM (≈ 65.6 µg/mL) | > 500 µM |  |  |  |  |  |  |  |  | MIC [4]: 256 µM (≈ 295 µg/mL); MIC [5]: 25 µM (≈ 28.8 µg/mL); MIC [6]: 28.4 µM (≈ 32.7 µg/mL); HC50 [7]: < 500 µM
CC[C@H](C)[C@H](NC(=O)[C@H](CCCNC(=N)N)NC(=O)[C@@H](CCCCN)NC(=O)[C@H](CC(C)C)NC(=O)[C@H](CC(C)C)NC(=O)CNC(=O)[C@H](CCCCn1cc(CC(NC(=O)[C@H](CC(C)C)NC(=O)[C@H](CC(C)C)NC(=O)[C@@H](NC(=O)[C@@H](CCCCN)NC(=O)[C@@H](NC(=O)[C@H](CCCNC(=N)N)NC(=O)[C@@H](CCCCN)NC(=O)[C@H](CC(C)C)NC(=O)[C@H](CC(C)C)NC(=O)CNC(C)=O)[C@@H](C)CC)[C@@H](C)O)C(N)=O)nn1)NC(C)=O)C(=O)N[C@H](CCCCN)C(=O)N[C@H](C(=O)N[C@@H](CC(C)C)C(=O)N[C@@H](CC(C)C)C(N)=O)[C@@H](C)O (some centres not stated) |  |  | 128 µM (≈ 338 µg/mL) | 2 µM (≈ 5.28 µg/mL) | 32 µM (≈ 84.5 µg/mL) | 16 µM (≈ 42.2 µg/mL) | 32 µM (≈ 84.5 µg/mL) | 4 µM (≈ 10.6 µg/mL) | 64 µM (≈ 169 µg/mL) | 64 µM (≈ 169 µg/mL) | 
CC[C@H](C)[C@H](NC(=O)[C@H](CCCNC(=N)N)NC(=O)[C@@H](CCCCN)NC(=O)[C@H](CC(C)C)NC(=O)[C@H](CC(C)C)NC(=O)CNC(C)=O)C(=O)N[C@H](CCCCN)C(=O)N[C@H](C(=O)N[C@@H](CC(C)C)C(=O)N[C@@H](CC(C)C)C(=O)NC(Cc1cn(CCCC[C@H](NC(=O)[C@H](CC(C)C)NC(=O)[C@H](CC(C)C)NC(=O)[C@@H](NC(=O)[C@@H](CCCCN)NC(=O)[C@@H](NC(=O)[C@H](CCCNC(=N)N)NC(=O)[C@@H](CCCCN)NC(=O)[C@H](CC(C)C)NC(=O)[C@H](CC(C)C)NC(=O)CNC(C)=O)[C@@H](C)CC)[C@@H](C)O)C(N)=O)nn1)C(N)=O)[C@@H](C)O (some centres not stated) |  |  | 128 µM (≈ 338 µg/mL) | 4 µM (≈ 10.6 µg/mL) | 16 µM (≈ 42.2 µg/mL) | 16 µM (≈ 42.2 µg/mL) | 64 µM (≈ 169 µg/mL) | 4 µM (≈ 10.6 µg/mL) | 128 µM (≈ 338 µg/mL) | 128 µM (≈ 338 µg/mL) | 
CC[C@H](C)[C@H](NC(=O)[C@H](Cc1ccccc1)NC(=O)[C@H](CCCCN)NC(=O)[C@H](CC(C)C)NC(=O)[C@H](CC(C)C)NC(=O)CN)C(=O)N[C@@H](CCCCN)C(=O)N[C@@H](CCCCN)C(=O)N[C@@H](CC(C)C)C(=O)N[C@@H](CC(C)C)C(N)=O (H-GLLKFIKKLL-NH2) |  | 13.6 µM |  |  |  |  |  |  |  |  | MIC [17]: 28.4 µM; MIC [18]: 9.5 µM (≈ 11.1 µg/mL); MIC [19]: 9.5 µM (≈ 11.1 µg/mL); MIC [20]: 25.6 µM (≈ 30 µg/mL); MIC [21]: 12.8 µM (≈ 15 µg/mL); MIC [22]: 9.5 µM
